Measurements taken from publication PMC13330650 (Matrix biology : journal of the International Society for …, 2025).
Positions count from the first letter of the chain named. Entries after “also recorded” stand apart in the source; their conditions may differ. Read-outs that look alike come from different tables or passages of the source.

Legend:
UGDH S316A = molecular target: T1, UGDH S316A (Homo sapiens, UniProt O60701, S316A); test: steady state kinetics of purified recombinant UGDH S316A; assay type: biochemical; details: cofactor NAD+ varied
T1 construct: six-histidine; made in house; host or cells: E. coli BL21(DE3)
T1 sequence (O60701 1-494 S316A): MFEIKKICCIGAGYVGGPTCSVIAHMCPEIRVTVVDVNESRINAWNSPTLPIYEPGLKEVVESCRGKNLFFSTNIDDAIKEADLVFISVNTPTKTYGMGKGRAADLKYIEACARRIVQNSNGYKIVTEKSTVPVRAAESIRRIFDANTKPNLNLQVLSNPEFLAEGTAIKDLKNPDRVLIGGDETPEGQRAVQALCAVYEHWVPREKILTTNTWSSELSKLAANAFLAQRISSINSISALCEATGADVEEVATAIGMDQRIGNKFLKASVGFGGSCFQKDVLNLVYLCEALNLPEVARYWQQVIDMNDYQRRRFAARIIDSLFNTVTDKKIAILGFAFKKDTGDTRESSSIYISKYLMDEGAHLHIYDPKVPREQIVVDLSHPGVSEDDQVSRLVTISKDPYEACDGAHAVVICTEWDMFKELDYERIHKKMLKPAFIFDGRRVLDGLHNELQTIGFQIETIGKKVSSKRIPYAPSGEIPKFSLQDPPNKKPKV
Description: (§1) Purified S316 mutants were compared to the UGDH WT enzyme using the following approaches as previously described. Enzymatic activity was evaluated by steady state kinetics in the presence and absence of the endogenous inhibitor UDP-Xylose to compare Michaelis constants and IC50 values. Intrinsic stability was assessed by thermal denaturation and quaternary structure was determined by size exclusion chromatography. Binding of UDP-Xylose to recombinant UGDH and mutants was measured by isothermal titration calorimetry using the MicroCal PEAQ-ITC (Malvern Panalytical). […] Binding heats were corrected for the heat of dilution and analyzed using the MicroCal PEAQ-ITC Analysis Software, employing a single-site binding model to determine Kd values.

UGDH WT = molecular target: T2, UGDH WT (Homo sapiens, UniProt O60701); test: steady state kinetics of purified recombinant UGDH WT; assay type: biochemical; details: cofactor NAD+ varied
T2 construct: six-histidine; made in house; host or cells: E. coli BL21(DE3)
T2 sequence (O60701 1-494): T1 sequence (O60701 1-494 S316A) with A316S
Description: as §1

UGDH S316D = molecular target: T3, UGDH S316D (Homo sapiens, UniProt O60701, S316D); test: steady state kinetics of purified recombinant UGDH S316D; assay type: biochemical; details: cofactor NAD+ varied
T3 construct: six-histidine; made in house; host or cells: E. coli BL21(DE3)
T3 sequence (O60701 1-494 S316D): T1 sequence (O60701 1-494 S316A) with A316D
Description: as §1

[1] = tested on: UGDH pS316 in LNCaP cells; test: western blot of UGDH pS316 (anti-p-Akt substrate) in LNCaP whole cell lysates; assay type: cell-based, human; details: for EGF-stimulated p-UGDH band intensity: EGF 20ng/mL, inhibitor 20 μM
From the text: To validate the phosphorylation of UGDH by RSK2, S6K1, and SGK1 in a cellular context, we used a western analysis that capitalized on the general reactivity of an antibody generated against the phosphorylated AGC kinase motif (RxRxxpS/T) for targets of Akt, which is also a member of this kinase family. To validate the assay, we first compared phosphorylation of S316 in the in vitro kinase assay using purified recombinant UGDH. […] We further validated using serum starved LNCaP cells treated with EGF to stimulate activity of RSK2 [26] and S6K1 [27], or DHT to activate SGK1 [28], prior to lysate harvest.
(§2) Cell treatments were conducted as follows, except where described. To stimulate phosphorylation of UGDH at S316 for Western blot analysis, cells were cultured in replete medium until they reached 70 % confluence. Seventy-two hours prior to harvest, medium was replaced with phenol-red-free media containing 5 % CS-FBS to reduce androgen signaling. Twenty-four hours prior to harvest, medium was replaced with phenol-red-free media containing 10 % CS-FBS plus 10 nM DHT or vehicle control. EGF (20ng/mL) or vehicle control were added to cell media twenty minutes prior to harvest. For assessment of UGDH pS316 in these conditions with kinase inhibition, assays were repeated with kinase inhibitors added alongside EGF, DHT, and controls. Kinase inhibitor treatment concentrations were optimized based on published efficacy ranges and the following were used for all assays: BIX02565 (20 μM), PF4708671 (20 μM), GSK650394 (40 μM). Proliferation assays were performed with 10 μM enzalutamide (enz) added as described below, and 3D assays were performed with 1 μM enz added during seeding as described. For click chemistry quantification of glycans in cells treated with 4-MU, 10 μM was added to cell medium during the addition of the click labeling reagents.
Media were aspirated from cells, and a portion kept for analysis of HA content. Cells were washed with 2 mL cold 1x PBS, scraped into 1 mL of cold 1xPBS, pelleted by centrifugation, and lysed with 1x RIPA buffer supplemented with 1x protease inhibitor cocktail. For analysis of phosphoprotein expression, 1x phosphatase inhibitor was added to the lysis buffer. Bradford assay was performed to quantify protein content of cell lysates. Blots were imaged and quantified through fluorescence emission using the Odyssey Infrared Imaging System (LI-COR Biosciences, Lincoln, NE, USA). β-tubulin or GAPDH were used to normalize protein expression. Each analysis was plotted for three technical replicates of a representative experiment that was repeated at least three times. Statistical significance was assessed by one-way ANOVA followed by Tukey’s post hoc test for multiple comparisons.

[2] = tested on: O-glycans in LNCaP UGDH WT (OE) and S316D cells; test: metabolic O-glycan labeling (Ac4GalNaz click chemistry) with 4-MU; assay type: cell-based, human; details: 10 μM 4-MU, 72 hours
[3] = tested on: LNCaP cell lines (VC, UGDH WT (OE), UGDH S316D, UGDH S316A); test: proliferation assay (resazurin conversion to resorufin); assay type: cell-based, human; details: for cell number / proliferation, single kinase inhibitor: all lines, 3-day, inhibitor 20 μM, replete media
Description: as §2
For basal growth, 5 × 10^4 cells of each line were cultured in 24-well plates in standard steroid-replete media. Cell proliferation was measured daily for three days in replicate plates incubated for 2 h with media containing 10 % resazurin, after which fluorescence of the reduced product, resorufin, was measured (560Ex/590Em) in a microplate reader. To assess the impacts of kinase inhibition on cell growth, assays were repeated in the presence of inhibitors individually and in combination. For androgen-mediated cell growth with kinase inhibition, cells were cultured in 24-well plates in standard steroid-replete media. After 12 h, media were first removed and replaced with media containing 5 % CS-FBS (androgen-depleted conditions) for 48 h, and then media were removed and replaced with media containing 10 % CS-FBS plus 10 nM DHT and kinase inhibitors for another 48 h. Cell proliferation was measured daily as described above beginning when cells were switched to androgen free conditions. For enz treatments, cells were cultured in 24-well plates in standard steroid-replete media. After 12 h, media were replaced with replete media containing vehicle or 10 μM enz and vehicle or kinase inhibitors. For assays with kinase inhibition, cell proliferation was measured daily as described above beginning when cells were switched to the respective treatment condition. Cell numbers were extrapolated from fluorescence values by comparison to a standard curve for each respective cell line, and cell count at the end of the experiment was normalized to cell count on day zero directly following media replacement. All data were plotted for four technical replicates of experiments that were repeated three times. Statistical significance was assessed by one-way ANOVA followed by Tukey’s post hoc test for multiple comparisons.

[4] = tested on: LNCaP cell lines (VC, UGDH WT (OE), UGDH S316D, UGDH S316A); test: tumoroid (anchorage independent spheroid) growth assay; assay type: cell-based, human

## NC(=O)c1ccc[n+]([C@@H]2O[C@H](COP(=O)([O-])OP(=O)(O)OC[C@H]3O[C@@H](n4cnc5c(N)ncnc54)[C@H](O)[C@@H]3O)[C@@H](O)[C@H]2O)c1 [NAD+]
UGDH S316A
  Km: 380 ± 60 µM
  NAD+ Vmax: 490±20 nmol/min/mg of protein
UGDH S316A; listed as NAD^+
  NAD+ Vmax: 490 nmol/min/mg of protein
UGDH WT
  Km: 530 ± 90 µM
  NAD+ Vmax: 710±40 nmol/min/mg of protein
UGDH WT; listed as NAD^+
  NAD+ Vmax: 710 nmol/min/mg of protein
UGDH S316D
  Km: 330 ± 70 µM
  NAD+ Vmax: 230±20 nmol/min/mg of protein
UGDH S316D; listed as NAD^+
  NAD+ Vmax: 230 nmol/min/mg of protein

## EGF: growth factor used to stimulate activity of RSK2 and S6K1
[1]; serum starved LNCaP cells, EGF 20ng/mL or 10 nM DHT
  stimulation of UGDH phosphorylation in whole cell lysates: Strong stimulation

## Cc1cc(=O)oc2cc(O)ccc12 [4-MU, 4-methylumbelliferone]
[2]; UGDH S316D cell lines
  O-glycan levels with 4-MU: this reversal was not observed
[2]; UGDH WT (OE) cells
  O-glycan levels with 4-MU: significant reductions in O-linked glycans; also recorded: reversed the enhancement of O-glycan levels

## CNC(=O)c1ccc(N2C(=S)N(c3ccc(C#N)c(C(F)(F)F)c3)C(=O)C2(C)C)cc1F [enz, enzalutamide]
[3]; UGDH S316D lines, 10 μM enz + PF4708671 20 μM
  growth in the presence of enz and S6K1 inhibitor: < 30 % of initial cell count
[3]; UGDH WT and S316D cells, 10 μM enz
  proliferation in the presence of enz alone: minimal detectable effect on proliferation; also recorded: continued to proliferate
[3]; UGDH WT and S316D, 10 μM enz + BIX02565 20 μM
  growth reduction, combined targeting of RSK2 with enz: ≈ 20%
[3]; VC and UGDH S316A lines, 10 μM enz + BIX02565 20 μM
  growth, combined targeting of RSK2 with enz: eliminated growth
[3]; VC and UGDH S316A-expressing cells, 10 μM enz
  growth suppression by enz alone: ≈ 40%
[4]; UGDH WT (OE) and S316D expressing cells, 1 μM enz
  enz suppression of large spheroid growth: sensitive

## C[C@]12CCC(=O)C[C@@H]1CC[C@@H]1[C@@H]2CC[C@]2(C)[C@@H](O)CC[C@@H]12 [DHT, 5α-Androstan-17β-ol-3-one]
[1]
  stimulation of UGDH phosphorylation in whole cell lysates: Strong stimulation

## O=C(O)c1ccc(-c2c[nH]c3ncc(-c4ccccc4)cc23)cc1C1CCCC1 [GSK650394]
[3]; GSK650394 40 μM, depleted 48 h, then serum and 10 nM DHT
  cell proliferation after serum and steroid depletion: significant impacts were observed
[3]; GSK650394 40 μM, replete medium, not shown
  cell proliferation in replete medium: did not abrogate cell proliferation
[1]; LNCaP cells, 10 nM DHT, GSK650394 40 μM
  DHT-stimulated p-UGDH band: virtually eliminated

## C[C@@H]1CCNC(=O)c2cc3ccc(C(=O)Nc4nc5ccccc5n4CCCN(C)C)cc3n21 [BIX02565]
[3]; VC and UGDH S316A cells, BIX02565 20 μM
  cell death: induced significant cell death
[3]
  cell number / proliferation, single kinase inhibitor: reduced cell number in all lines
[1]; LNCaP cells
  EGF-stimulated p-UGDH band intensity: significantly reduced
[4]; UGDH WT (OE) and S316D expressing cells, RSK2 inhibitor BIX02565 20 μM
  spheroid growth diminished: ≈ 80%
[4]; VC and UGDH S316A cell lines, RSK2 inhibitor BIX02565 20 μM
  medium and large spheroid growth: almost completely suppressed

## CCc1cncnc1N1CCN(Cc2nc3ccc(C(F)(F)F)cc3[nH]2)CC1 [PF4708671]
[3]
  cell number / proliferation, single kinase inhibitor: reduced proliferation in all lines
[1]; LNCaP cells
  EGF-stimulated p-UGDH band intensity: significantly reduced
